Results as given in ChEMBL document CHEMBL1134592, “Design and synthesis of matrix metalloproteinase inhibitors guided by molecular modeling. Picking the S(1) pocket using conformationally constrained inhibitors” (J Med Chem, 2001).

What was measured:
Stromelysin-1 = Stromelysin-1 (Homo sapiens, UniProt P08254); experiment: Inhibition of matrix metalloprotease-3
[1] = molecular target: Matrix metalloproteinase-9 (Homo sapiens, UniProt P14780); experiment: Inhibition of human matrix metalloprotease-9
[2] = molecular target: 72 kDa type IV collagenase (Homo sapiens, UniProt P08253); experiment: Inhibition of matrix metalloprotease-2
Collagenase 3 = Collagenase 3 (Homo sapiens, UniProt P45452); experiment: Inhibition of matrix metalloprotease-13
Interstitial collagenase = molecular target: T1, Interstitial collagenase (Homo sapiens, UniProt P03956); experiment: Inhibition of human matrix metalloprotease-1
T1 sequence (P03956 whole entry): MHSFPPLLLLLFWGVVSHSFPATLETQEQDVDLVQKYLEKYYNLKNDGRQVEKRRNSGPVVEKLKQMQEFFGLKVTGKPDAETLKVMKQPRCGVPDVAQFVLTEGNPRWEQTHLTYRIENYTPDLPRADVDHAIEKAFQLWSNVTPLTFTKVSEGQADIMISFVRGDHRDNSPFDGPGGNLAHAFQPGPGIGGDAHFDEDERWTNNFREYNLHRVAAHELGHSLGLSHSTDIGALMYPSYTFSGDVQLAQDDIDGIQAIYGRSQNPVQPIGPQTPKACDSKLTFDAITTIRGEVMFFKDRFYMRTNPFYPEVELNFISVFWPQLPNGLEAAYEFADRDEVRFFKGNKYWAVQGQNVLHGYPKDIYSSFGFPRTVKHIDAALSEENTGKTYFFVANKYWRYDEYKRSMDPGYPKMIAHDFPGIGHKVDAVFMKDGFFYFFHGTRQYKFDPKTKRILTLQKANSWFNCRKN

Sequence of Stromelysin-1 (P08254 whole entry): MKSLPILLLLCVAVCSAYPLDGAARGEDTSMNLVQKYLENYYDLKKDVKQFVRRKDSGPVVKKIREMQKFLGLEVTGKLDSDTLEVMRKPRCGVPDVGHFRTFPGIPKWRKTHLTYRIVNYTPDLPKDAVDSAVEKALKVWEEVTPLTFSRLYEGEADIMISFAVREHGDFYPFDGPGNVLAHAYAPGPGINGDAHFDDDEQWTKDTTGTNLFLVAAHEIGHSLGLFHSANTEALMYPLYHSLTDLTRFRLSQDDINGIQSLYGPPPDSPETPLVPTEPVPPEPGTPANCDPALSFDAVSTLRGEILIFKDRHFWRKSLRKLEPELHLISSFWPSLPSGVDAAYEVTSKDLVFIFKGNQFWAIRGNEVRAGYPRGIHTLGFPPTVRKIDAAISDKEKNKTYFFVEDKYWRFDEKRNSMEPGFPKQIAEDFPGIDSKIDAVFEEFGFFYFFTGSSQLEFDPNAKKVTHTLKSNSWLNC
Sequence of Matrix metalloproteinase-9 (P14780 whole entry): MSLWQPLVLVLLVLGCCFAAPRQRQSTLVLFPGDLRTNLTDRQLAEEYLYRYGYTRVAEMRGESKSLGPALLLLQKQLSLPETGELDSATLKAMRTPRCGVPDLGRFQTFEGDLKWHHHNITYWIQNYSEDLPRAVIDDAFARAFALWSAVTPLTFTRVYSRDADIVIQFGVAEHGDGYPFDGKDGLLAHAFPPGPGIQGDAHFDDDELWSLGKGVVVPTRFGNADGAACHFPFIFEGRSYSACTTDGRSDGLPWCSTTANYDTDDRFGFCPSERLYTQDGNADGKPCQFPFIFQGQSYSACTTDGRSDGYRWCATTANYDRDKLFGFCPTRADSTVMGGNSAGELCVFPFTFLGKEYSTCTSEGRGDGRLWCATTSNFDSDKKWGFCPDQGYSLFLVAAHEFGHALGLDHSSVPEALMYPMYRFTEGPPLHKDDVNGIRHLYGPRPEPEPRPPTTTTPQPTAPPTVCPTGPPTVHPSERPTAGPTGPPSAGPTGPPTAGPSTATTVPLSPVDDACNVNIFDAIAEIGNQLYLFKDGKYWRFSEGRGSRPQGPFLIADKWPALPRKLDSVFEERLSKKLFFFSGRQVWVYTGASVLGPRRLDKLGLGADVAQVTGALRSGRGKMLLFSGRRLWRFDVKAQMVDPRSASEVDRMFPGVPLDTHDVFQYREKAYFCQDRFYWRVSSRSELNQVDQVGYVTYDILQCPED
Sequence of 72 kDa type IV collagenase (P08253 whole entry): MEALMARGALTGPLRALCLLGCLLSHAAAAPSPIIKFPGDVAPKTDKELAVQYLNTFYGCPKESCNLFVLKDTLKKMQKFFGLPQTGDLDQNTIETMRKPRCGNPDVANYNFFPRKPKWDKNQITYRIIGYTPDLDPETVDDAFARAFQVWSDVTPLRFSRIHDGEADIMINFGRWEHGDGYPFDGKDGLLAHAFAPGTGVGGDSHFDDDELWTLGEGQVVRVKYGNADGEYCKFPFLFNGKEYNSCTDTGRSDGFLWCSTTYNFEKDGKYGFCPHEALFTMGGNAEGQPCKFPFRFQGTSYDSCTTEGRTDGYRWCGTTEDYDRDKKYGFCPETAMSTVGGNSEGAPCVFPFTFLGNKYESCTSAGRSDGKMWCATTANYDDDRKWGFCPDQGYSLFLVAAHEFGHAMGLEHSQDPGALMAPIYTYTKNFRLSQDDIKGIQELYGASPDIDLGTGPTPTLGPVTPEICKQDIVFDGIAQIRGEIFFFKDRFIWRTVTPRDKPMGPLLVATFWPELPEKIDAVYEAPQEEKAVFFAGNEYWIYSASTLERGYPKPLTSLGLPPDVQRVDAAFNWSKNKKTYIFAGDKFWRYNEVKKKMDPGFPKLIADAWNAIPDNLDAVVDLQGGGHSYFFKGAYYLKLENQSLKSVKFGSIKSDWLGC

Row | SMILES | IC50 (Stromelysin-1) | IC50 [1] | IC50 [2] | IC50 (Collagenase 3) | IC50 (Interstitial collagenase)
1 | COc1ccc(S(=O)(=O)N2CC(C)(C)C(CSCc3ccccc3)[C@@H]2C(=O)NO)cc1 (some centres not stated) | 6.7 nM | 0.9 nM | 1.64 nM | 5.5 nM | –
2 | COc1ccc(S(=O)(=O)N2CC(C)(C)C(CSCCc3ccccc3)[C@@H]2C(=O)NO)cc1 (some centres not stated) | 6.5 nM | 2.8 nM | 15.4 nM | 17 nM | 654 nM
3 | C=CC1[C@H](C(=O)NO)N(S(=O)(=O)c2ccc(OC)cc2)CC1(C)C (some centres not stated) | 293 nM | 138 nM | 441 nM | 519 nM | –
4 | COc1ccc(S(=O)(=O)N2CC(C)(C)C([C@@H](O)CSc3ccccc3)[C@@H]2C(=O)NO)cc1 (some centres not stated) | 18.7 nM | 3.6 nM | 16.2 nM | 18.1 nM | 301 nM
5 | COc1ccc(S(=O)(=O)N(CC(C)C)[C@H](CCSCc2ccccc2)C(=O)NO)cc1 | 0.7 nM | 2.5 nM | 0.7 nM | 12 nM | 104 nM
6 | COc1ccc(S(=O)(=O)N2CC(C)(C)C(COCc3ccccc3)[C@@H]2C(=O)NO)cc1 (some centres not stated) | 10.1 nM | 9.2 nM | 32 nM | 44.2 nM | 1620 nM
7 | COc1ccc(S(=O)(=O)N2CC(C)(C)C(CO)[C@@H]2C(=O)NO)cc1 (some centres not stated) | 136 nM | 50 nM | 143 nM | 218 nM | –
8 | COc1ccc(CSCC2[C@H](C(=O)NO)N(S(=O)(=O)c3ccc(OC)cc3)CC2(C)C)cc1 (some centres not stated) | 16.7 nM | 4.4 nM | 4.6 nM | 22.3 nM | 458 nM
9 | COc1ccc(S(=O)(=O)N2CC(C)(C)C([C@H](O)CSc3ccccc3)[C@@H]2C(=O)NO)cc1 (some centres not stated) | 3 nM | 0.9 nM | 2.5 nM | 3.7 nM | 117 nM
